Measurements as given in patent publication US20010031790A1, “Treatment for complications of type 2 diabetes” (priority 1999, published 2001).
Entries after “also recorded” stand apart in the source; their conditions may differ. Marks after values point to notes of the source that are not given here.

Assay: Clinical comparison of patient groups: plasma MG, D-lactate and HbA1c in type 2 diabetic subjects receiving low or high daily dosages of metformin
Format: in vivo, human
Conditions: for DL (D-lactate) / HbA1c / MG (plasma methylglyoxal level): diabetic subjects
Source text: The differences noted above are shown in the following summary of clinical results utilizing patient groups of individuals free of diabetes, those having diabetes but receiving no metformin, those having diabetes and receiving one gram or less of metformin daily and those receiving more than a gram of metformin daily, respectively. In Table 1, the number of patients in each group is noted as are the levels of plasma MG, DL(D-lactate) and […] (HbA1c).

Structure (SMILES): CN(C)C(=N)N=C(N)N [Metformin, N,N-dimethylimidocarbonimide diamide]
- DL (D-lactate) (metformin >1 g/day, n=13): 13.4 ± 4.6^c μmol/l
- HbA1c (metformin >1 g/day, n=13): 8.3 ± 1.0%
- MG (plasma methylglyoxal level) (metformin >1 g/day, n=13): 158.4 ± 44.2^b nmol/l
- DL (D-lactate) (metformin ≦1 g/day, n=17): 13.8 ± 7.7^c μmol/l
- HbA1c (metformin ≦1 g/day, n=17): 8.0 ± 1.1%
- MG (plasma methylglyoxal level) (metformin ≦1 g/day, n=17): 210.9 ± 51.0 nmol/L
- plasma level of MG, result in words (group taking high dosages of metformin, versus low dosage group and diabetics without metformin): significant lowering of plasma levels of MG; also recorded: significantly lower plasma level of MG
- difference in glycemic control between high and low dosages (high versus low dosage groups of metformin): little difference in glycemic control
- levels of D-lactate, result in words (metformin administration versus diabetic control group receiving no metformin, no significant difference between high and low dosages): increased
